Data reported in patent publication US6794149B1, “GABA B receptors” (Bayer Aktiengesellschaft, priority 1999, dated 2004).

What was measured:
D-GABA B receptors R1/R2 = assay: cAMP measurement in HEK293 cells stably coexpressing D-GABA B R1/R2; format: cell-based, Drosophila melanogaster; conditions: D-GABA B R1/2-transfected HEK293 cells; GABA (100 μM) with forskolin (10 μM), 30 minutes, 37° C.; FIG. 2
Method: HEK293 cells were cultured at 5% CO2 and 37° C. in Dulbecco's modified Eagle's medium and 10% foetal calf serum. MBS (Stratagene, La Jolla, USA) was used for the gene transfer, following the manufacturer's instructions. 24 h to 48 h after the gene transfer, the cells were sown intro microtiter plates at various densities. Recombinant cells were selected over 3 to 4 weeks by growth in Dulbecco's modified Eagles medium and 10% foetal calf serum and 700 μg/ml Geneticin (G418, Life Technologies, Karlsruhe) as selection marker. Individual resistant clones were analysed as described below.
HEK293 cell strains were used for determining the cAMP concentration. On the one hand, HEK293 cells stably coexpressed the two Drosophila melanogaster receptors D-GABA B R1 and D-GABA B R2 (D-GABA R1/2). On the other hand, untransfected control cells were incorporated into the assay (control). In each case, the cells were plated into 96-well-plates at a density of 20,000 cells per cavity. […] The cells were lysed for 20 minutes at room temperature with shaking, and the cAMP concentration of the cell lysates were determined in triplicate using the enzyme immunoassay (EIA) kit AK-200 (Biomol, Hamburg, Germany) following the manufacturer's description.

[1] = test system: untransfected control cells (HEK293); assay: cAMP measurement in untransfected HEK293 control cells; format: cell-based; conditions: GABA (100 μM) with forskolin (10 μM), 30 minutes, 37° C., FIG. 2
Method: HEK293 cell strains were used for determining the cAMP concentration. On the one hand, HEK293 cells stably coexpressed the two Drosophila melanogaster receptors D-GABA B R1 and D-GABA B R2 (D-GABA R1/2). On the other hand, untransfected control cells were incorporated into the assay (control). In each case, the cells were plated into 96-well-plates at a density of 20,000 cells per cavity. Control cells were incubated in culture medium (DMEM, 10% FCS, penicillin and streptomycin, 50 U/ml and 50 μg/ml (Life Technologies)) and D-GABA-R1/2 expressing cells in selection medium (culture medium with 0.5 mg/ml Geneticin (G418, Life Technologies)) for 48 hours at 37° C. until a cell density of approximately 80% was reached. Thereupon, the medium was removed, and the cells were washed once with unsupplemented DMEM. After incubation for 30 minutes with IBMX (300 μM) at 37° C., cells were stimulated for 30 minutes with GABA (100 μM) and/or forskolin (10 μM) at 37° C. All incubation steps were carried out in unsupplemented DMEM (Life Technologies). […] The cells were lysed for 20 minutes at room temperature with shaking, and the cAMP concentration of the cell lysates were determined in triplicate using the enzyme immunoassay (EIA) kit AK-200 (Biomol, Hamburg, Germany) following the manufacturer's description.

NCCCC(=O)O [GABA, Gamma-amino-butyric acid]
forskolin-induced cAMP response (intracellular cAMP concentration) (D-GABA B receptors R1/R2): marked reduction | forskolin-induced cAMP response (intracellular cAMP concentration) [1]: unresponsive
